Measurements from ChEMBL document CHEMBL1629667, “Activities of dalbavancin against a worldwide collection of 81,673 gram-positive bacterial isolates” (2009).
Values after ≈ are worked out from the molar mass of the structure shown.

Experiments:
Format in all cases: functional
[1] = tested on: Staphylococcus aureus; assay: Antimicrobial activity against Oxacillin-susceptible Staphylococcus aureus assessed as percent resistant isolates by broth microdilution method
[2] = tested on: Staphylococcus aureus; assay: Antimicrobial activity against Oxacillin-resistant Staphylococcus aureus assessed as percent resistant isolate by broth microdilution method
[3] = tested on: Staphylococcus aureus; assay: Antimicrobial activity against Oxacillin-susceptible Staphylococcus aureus by broth microdilution method
[4] = tested on: Staphylococcus aureus; assay: Antimicrobial activity against Oxacillin-resistant Staphylococcus aureus by broth microdilution method
[5] = tested on: Staphylococcus; assay: Antimicrobial activity against Oxacillin-susceptible coagulase-negative Staphylococcus by broth microdilution method
[6] = tested on: Staphylococcus aureus; assay: Antimicrobial activity against Oxacillin-susceptible Staphylococcus aureus assessed as percent susceptible isolate by broth microdilution method
[7] = tested on: Staphylococcus aureus; assay: Antimicrobial activity against Oxacillin-resistant Staphylococcus aureus assessed as percent susceptible isolate by broth microdilution method
[8] = tested on: Staphylococcus; assay: Antimicrobial activity against Oxacillin-susceptible coagulase-negative Staphylococcus assessed as percent susceptible isolate by broth microdilution method
[9] = tested on: Staphylococcus; assay: Antimicrobial activity against Oxacillin-resistant coagulase-negative Staphylococcus assessed as percent susceptible isolate by broth microdilution method
[10] = tested on: Staphylococcus; assay: Antimicrobial activity against Oxacillin-susceptible coagulase-negative Staphylococcus assessed as percent resistant isolate by broth microdilution method
[11] = tested on: Staphylococcus; assay: Antimicrobial activity against Oxacillin-resistant coagulase-negative Staphylococcus assessed as percent resistant isolate by broth microdilution method
[12] = tested on: Enterococcus faecalis; assay: Antimicrobial activity against Vancomycin-nonsusceptible Enterococcus faecalis assessed as percent resistant isolates by broth microdilution method
[13] = tested on: Enterococcus faecium; assay: Antimicrobial activity against Vancomycin-nonsusceptible Enterococcus faecium assessed as percent resistant isolates by broth microdilution method
[14] = tested on: Streptococcus; assay: Antimicrobial activity against Beta-hemolytic Streptococcus assessed as percent resistant isolates by broth microdilution method
[15] = tested on: Enterococcus faecium; assay: Antimicrobial activity against Vancomycin-susceptible Enterococcus faecium assessed as percent resistant isolates by broth microdilution method
[16] = tested on: Staphylococcus; assay: Antimicrobial activity against Oxacillin-resistant coagulase-negative Staphylococcus by broth microdilution method
[17] = tested on: Enterococcus faecalis; assay: Antimicrobial activity against Vancomycin-susceptible Enterococcus faecalis by broth microdilution method
[18] = tested on: Enterococcus faecalis; assay: Antimicrobial activity against Vancomycin-nonsusceptible Enterococcus faecalis by broth microdilution method
[19] = tested on: Enterococcus faecium; assay: Antimicrobial activity against Vancomycin-susceptible Enterococcus faecium by broth microdilution method
[20] = tested on: Enterococcus faecium; assay: Antimicrobial activity against Vancomycin-nonsusceptible Enterococcus faecium by broth microdilution method
[21] = tested on: Streptococcus; assay: Antimicrobial activity against Beta-hemolytic Streptococcus by broth microdilution method
[22] = tested on: Streptococcus; assay: Antimicrobial activity against viridans group Streptococcus by broth microdilution method
[23] = tested on: Enterococcus faecalis; assay: Antimicrobial activity against Vancomycin-susceptible Enterococcus faecalis assessed as percent susceptible isolate by broth microdilution method
[24] = tested on: Enterococcus faecalis; assay: Antimicrobial activity against Vancomycin-nonsusceptible Enterococcus faecalis assessed as percent susceptible isolate by broth microdilution method
[25] = tested on: Enterococcus faecium; assay: Antimicrobial activity against Vancomycin-susceptible Enterococcus faecium assessed as percent susceptible isolate by broth microdilution method
[26] = tested on: Enterococcus faecium; assay: Antimicrobial activity against Vancomycin-nonsusceptible Enterococcus faecium assessed as percent susceptible isolate by broth microdilution method
[27] = tested on: Streptococcus; assay: Antimicrobial activity against Beta-hemolytic Streptococcus assessed as percent susceptible isolate by broth microdilution method
[28] = tested on: Streptococcus; assay: Antimicrobial activity against viridans group Streptococcus assessed as percent susceptible isolate by broth microdilution method
[29] = tested on: Enterococcus faecalis; assay: Antimicrobial activity against Vancomycin-susceptible Enterococcus faecalis assessed as percent resistant isolates by broth microdilution method
[30] = tested on: Streptococcus; assay: Antimicrobial activity against viridans group Streptococcus assessed as percent resistant isolates by broth microdilution method

Compound	Activity [1] [%]	Activity [2] [%]	MIC50 [3] [µg/mL]	MIC90 [3] [µg/mL]	MIC90 [4] [µg/mL]	MIC50 [5] [µg/mL]	MIC90 [5] [µg/mL]	Activity [6] [%]	Activity [8] [%]	Activity [9] [%]	Activity [12] [%]	Activity [13] [%]	Activity [15] [%]	MIC50 [17] [µg/mL]	MIC90 [17] [µg/mL]	Activity [23] [%]	Activity [24] [%]	Activity [25] [%]	Activity [26] [%]	Activity [29] [%]	further results
CN(C)[C@@H]1C(O)=C(C(N)=O)C(=O)[C@@]2(O)C(O)=C3C(=O)c4c(O)cccc4[C@@](C)(O)[C@H]3C[C@@H]12 [TETRACYCLINE]	5.8	18.4	≤ 4	≤ 4	> 8	≤ 4	> 8	93.7	86.7	83.4	–	–	–	–	–	–	–	–	–	–	MIC [3]: ≤ 4 µg/mL; MIC [5]: ≤ 4 µg/mL; Activity [7]: 81.1%; Activity [10]: 12.6%; Activity [11]: 15.8%
CC(=O)NC[C@H]1CN(c2ccc(N3CCOCC3)c(F)c2)C(=O)O1 [LINEZOLID]	–	0.04	2 (≈ 5.93 µM)	2 (≈ 5.93 µM)	2 (≈ 5.93 µM)	1 (≈ 2.96 µM)	1 (≈ 2.96 µM)	100	99.9	99.5	1.4	1.8	0.3	1 (≈ 2.96 µM)	2 (≈ 5.93 µM)	99.8	98.6	99.6	97.6	0.1	Activity [14]: 1.3%; MIC50 [4]: 1 µg/mL (≈ 2.96 µM); MIC50 [16]: 1 µg/mL (≈ 2.96 µM); MIC90 [16]: 1 µg/mL (≈ 2.96 µM); MIC50 [18]: 1 µg/mL (≈ 2.96 µM); MIC90 [18]: 2 µg/mL (≈ 5.93 µM); MIC50 [19]: 1 µg/mL (≈ 2.96 µM); MIC90 [19]: 2 µg/mL (≈ 5.93 µM); MIC50 [20]: 1 µg/mL (≈ 2.96 µM); MIC90 [20]: 2 µg/mL (≈ 5.93 µM); MIC50 [21]: 1 µg/mL (≈ 2.96 µM); MIC90 [21]: 1 µg/mL (≈ 2.96 µM); MIC50 [22]: 1 µg/mL (≈ 2.96 µM); MIC90 [22]: 1 µg/mL (≈ 2.96 µM); Activity [27]: 100%; Activity [28]: 99.9%
CC1(C)S[C@@H]2[C@H](NC(=O)[C@H](N)c3ccccc3)C(=O)N2[C@H]1C(=O)O [AMPICILLIN]	–	–	–	–	–	–	–	–	–	–	4	99.2	84.4	≤ 2	≤ 2	99.6	96	15.6	0.8	0.2	MIC [17]: ≤ 2 µg/mL; MIC [18]: ≤ 2 µg/mL; MIC50 [18]: ≤ 2 µg/mL; MIC90 [18]: 4 µg/mL (≈ 11.4 µM); MIC50 [19]: > 16 µg/mL; MIC90 [19]: > 16 µg/mL; MIC50 [20]: > 16 µg/mL; MIC90 [20]: > 16 µg/mL
GENTAMICIN	2.6	24.8	< 2	< 2	> 8	< 2	< 2	97.1	95	50.7	71.6	35.7	38.2	< 500	> 1000	68.5	28.4	61.8	64.3	31.5	MIC50 [4]: < 2 µg/mL; MIC50 [16]: 4 µg/mL; MIC90 [16]: > 8 µg/mL; Activity [7]: 74.1%; Activity [10]: 3.1%; Activity [11]: 35.3%
CC1(C)S[C@@H]2[C@H](NC(=O)Cc3ccccc3)C(=O)N2[C@H]1C(=O)O [PENICILLIN G]	–	–	–	–	–	–	–	–	–	–	–	–	–	–	–	–	–	–	–	–	Activity [30]: 6%; MIC [21]: 0.015 µg/mL (≈ 0.0449 µM); MIC50 [21]: 0.015 µg/mL (≈ 0.0449 µM); MIC90 [21]: 0.06 µg/mL (≈ 0.179 µM); MIC50 [22]: 0.06 µg/mL (≈ 0.179 µM); MIC90 [22]: 1 µg/mL (≈ 2.99 µM); Activity [27]: 99.9%; Activity [28]: 71.7%
